Data from patent EP1760056A1, “A convenient method for the preparation of no-carrier-added O-(2-[18F]fluoroethyl)-L-Tyrosine)” (Institute of Nuclear Energy Research, priority 2005, dated 2007).
Like-named read-outs stand apart in the source and are kept apart here.

Assays:
F98 glioma cells [1] = assay: L-[18F]FET uptake by F98 glioma tumor cells; type: cell-based, rat; settings: 10 µCi/well
Procedure: • (1) In five six-well plates, put 1×10^6 F98 glioma cells and 2 ml DMEM (1g glucose/1) into three wells. • (2) Total of five time points (2, 5, 10, 30 minute and 1hour) in this experiment and each time point use one six-well plate. • (3) Predetermined activity of L-[^18F]FET or [^18F]FDG (10 µCi/well) is added into each well during the experiment. […] F98 glioma cells intake L-[^18F]FET rapidly and maximal accumulation will reach after 10 minutes (uptake ratio 0.47%). As cell cannot metabolize L-[^18F]FET, therefore, the rate of L-[^18F]FET transportation by the cells become balance after ten minutes when add L-[^18F]FET; the accumulation of L-[^18F]FET in glioma cells only slightly decrease after 1 hour (uptake ratio 0.41%).

brain tumor (F98 glioma) = assay: PET and microPET imaging of tumor-bearing rat with L-[18F]FET; type: in vivo, rat (Fischer 344); settings: 400 µCi into tail vein
Procedure: • (1) Positron emission tomography (PET) studies of tumor-bearing rat (Fischer 344) with L-[^18F]FET will be carry out after 11~12 days of brain tumor (F98 glioma) implantation. • (2) Producing processes of L-[^18F]FET as described above, and estimates its administrating amount of agent according to the level of radioactivity. • (3) At the very beginning, inject 400 µCi of L-[^18F]FET into tail vein. Temporarily anesthetize rats with ether at time of 0.5, 1, 1.5 and 2 hours. Fix rat on transparent acrylic board and place on PET table after securing stretched limbs on the board. Continuously anesthetize rats with isoflurane gas. Align implant portion of head with PET machine as to assure the fixation of original imaging position. • (4) Adjust background value by blank scan before PET imaging. • (5) Use Ga-68 radioactive source proceed transmission scan for adjust tissue attenuation. • (6) Commence PET and microPET imaging. Perform image processing after reconstruction of acquired image data; the coronal and cross section scans show in Figure 3 and 9. […] In contrast to tumor site, normal tissue have lower radioactivity accumulation of L-[^18F]FET because of lower amino acid requirement.

F98 glioma cells [2] = assay: Biological distribution of L-[18F]FET in F98 glioma-bearing Fischer 344 rat; settings: in vivo
Procedure: (§1) • (1) Total of twenty Fischer 344 male rats will be assessed in vivo for L-[^18F]FET biological distribution. Use the intersection of bregma and sagittal midlines as original point; so as to implant F98 glioma cells (1 × 10^5cells /10 µl) at the place of 3mm left 5mm upward and 5mm depth. Biological distribution test will be carry out after 11~12 days of brain tumor implantation. • (2) Different volume of radioactive level is injected, injected volume of L-[^18F]FET for each Fischer 344 rat is 200~300µl, that is approximately 200~250 µCi of activity. • (3) Inject L-[^18F]FET via tail vein, and rats are sacrificed at 15, 30, 60, 90 and 120 minutes. • (4) Dissection of rat organ is right after sacrifice. Scissors off chest and abdomen fur alone the line from genital pore upward to jowl. Next, scissors off chest above xiphisternal transversely. Open ribs aside, take blood sample from venous sinus with 0.5 ml syringe. Withdraw the needle after depletion of blood and collect the extracted heart. Collect the lung lobes with forcep. • (5) Scissors off abdominal muscle from genital pore upward to the position below xiphisternal longitudinally. Then, scissors off the opening of upper and lower edges transversely, everts muscle layers to both sides and expose celiac organs. Search for bladder in lower abdomen and sequentially removes stomach, liver, spleen, small intestine, large intestine, kidney, and muscle. • (6) After turn over the rat, scissors off fur of shoulder and removes exposed subcutaneous tumor. Cut scalp upward at lower margin of cranium above foramen magnum and expose cranial bone. Then, cut cervical portion transversely at foramen magnum and expose spinal cord. Inserts foramen magnum with scissors' tip while attach the inner surface of cranium; such that scissors' tip can reach the frontal edge of cranial cavity in order to scissor off the center of cranium. Use scissors to open cranium aside and expose brain tissue. Alone skull base insert scissors deeply to the front edge of cranial cavity in order to remove left-brain, right-brain and brain tumor. • (7) Weight all organ samples; measure radioactivity with γ-counter and convert to %ID/g (% injection dose/g organ) of each organ for estimate the biological distribution of L-[^18F]FET. […] According to reports, L-[^18F]FET can pass through blood brain barrier (BBB) and enter brain by way of L amino acid transporter system. […] Tumor-to-normal brain ratio of L-[^18F]FET at 15, 30, 60, 90 and 120 minutes are 1.54, 1.74, 3.16, 3.14 and 2.34 respectively. Besides brain tumor, rat pancreas also accumulate large amount of L-[^18F]FET (0.98, 1.76, 2.55, 2.28 and 2.24 %ID/g respectively at 15, 30, 60, 90 and 120 minutes); the increasing radioactivity of L-[^18F]FET in pancreas is because of pancreas require large amount of amino acid for synthesis various enzymes and hormones. Some papers reported that patient with tumor observes no significant accumulation of radioactivity in pancreas when use positron emission tomography (PET), the discrepant results were assumed that human and rat have different metabolic pathway. Furthermore, biological distribution study of L-[^18F]FET indicated radioactivity accumulation in tumor cells (expressed by %ID/g) are much higher than other normal organs (left-brain, small intestine, kidney, liver, blood and muscle) except pancreas, this means L-[^18F]FET can be a potential PET agent for substantially different site of tumor. […] Table 1: Determination of accumulated radioactivity (%ID/g) in organs at different time points after injected L-[18F]FET into tumor-bearing rat

[3] = as above; settings: in vivo, iv; for tissue uptake at 0.25 h: 15 min after injection via tail vein; for tissue uptake at 0.5 h: 30 min after injection via tail vein; for tissue uptake at 1 h: 60 min after injection via tail vein; for tissue uptake at 2 h: 120 min after injection via tail vein
Procedure: as §1

[4] = Liver, read-out: accumulated radioactivity
[5] = Lung, read-out: accumulated radioactivity
[6] = Muscle, read-out: accumulated radioactivity
[7] = Pancreas, read-out: accumulated radioactivity
[8] = Right brain, read-out: accumulated radioactivity

Compound: N[C@@H](Cc1ccc(OCC[18F])cc1)C(=O)O [L-[^18F]FET, O-(2-[^18F]fluoroethyl)-L-Tyrosine]
- uptake ratio (F98 glioma cells [1]; after 10 minutes (maximal accumulation)): 0.47%
- uptake ratio (F98 glioma cells [1]; after 1 hour): 0.41%
- radioactivity accumulation in brain tumor (brain tumor (F98 glioma)): significant radioactivity accumulation in brain tumor
- time of maximum uptake in brain tumor (brain tumor (F98 glioma); time after injection): 90 min
- Tumor-to-normal brain ratio (F98 glioma cells [2]; 15 min): 1.54
- Tumor-to-normal brain ratio (F98 glioma cells [2]; 30 min): 1.74
- Tumor-to-normal brain ratio (F98 glioma cells [2]; 60 min): 3.16
- Tumor-to-normal brain ratio (F98 glioma cells [2]; 90 min): 3.14
- Tumor-to-normal brain ratio (F98 glioma cells [2]; 120 min): 2.34
- tissue uptake at 0.25 h [3, 4]: 0.27 ± 0.06 %ID/g
- tissue uptake at 0.5 h [3, 4]: 0.37 ± 0.07 %ID/g
- tissue uptake at 1 h [3, 4]: 0.41 ± 0.06 %ID/g
- tissue uptake at 1.5 h ([3]; Liver, 90 min after injection via tail vein, read-out: accumulated radioactivity): 0.49 ± 0.01 %ID/g
- tissue uptake at 2 h [3, 4]: 0.41 ± 0.09 %ID/g
- tissue uptake at 0.25 h [3, 5]: 0.32 ± 0.05 %ID/g
- tissue uptake at 0.5 h [3, 5]: 0.43 ± 0.09 %ID/g
- tissue uptake at 1 h [3, 5]: 0.43 ± 0.07 %ID/g
- tissue uptake at 1.5 h ([3]; Lung, 90 min after injection via tail vein, read-out: accumulated radioactivity): 0.45 ± 0.02 %ID/g
- tissue uptake at 2 h [3, 5]: 0.4 ± 0.06 %ID/g
- tissue uptake at 0.25 h [3, 6]: 0.19 ± 0.03 %ID/g
- tissue uptake at 0.5 h [3, 6]: 0.28 ± 0.01 %ID/g
- tissue uptake at 1 h [3, 6]: 0.36 ± 0.04 %ID/g
- tissue uptake at 1.5 h ([3]; Muscle, 90 min after injection via tail vein, read-out: accumulated radioactivity): 0.44 ± 0.1 %ID/g
- tissue uptake at 2 h [3, 6]: 0.37 ± 0.1 %ID/g
- tissue uptake at 0.25 h [3, 7]: 0.98 %ID/g
- tissue uptake at 0.5 h [3, 7]: 1.76 %ID/g
- tissue uptake at 1 h [3, 7]: 2.55 %ID/g
- tissue uptake at 1.5 h ([3]; Pancreas, 90 min after injection via tail vein, read-out: accumulated radioactivity): 2.28 %ID/g
- tissue uptake at 2 h [3, 7]: 2.24 %ID/g
- tissue uptake at 0.25 h [3, 8]: 0.07 ± 0.02 %ID/g
- tissue uptake at 0.5 h [3, 8]: 0.21 ± 0.03 %ID/g
- tissue uptake at 1 h [3, 8]: 0.34 ± 0.03 %ID/g
- tissue uptake at 1.5 h ([3]; Right brain, 90 min after injection via tail vein, read-out: accumulated radioactivity): 0.48 ± 0.08 %ID/g
- tissue uptake at 2 h [3, 8]: 0.34 ± 0.04 %ID/g
- tissue uptake at 1.5 h ([3]; maximum accumulation in normal brain tissue): 0.48 %ID/g
